Results reported in patent US11213513B2, “Compositions and methods for promoting hair growth with Mpc1 inhibitors” (The Regents of the University of California, priority 2017, dated 2022).
Entries after “also recorded” stand apart in the source; their conditions may differ.

Assays:
Format in all cases: in vivo, mouse
[1] = test system: wildtype C57BL/6J animals; experiment: Topical treatment of shaved telogen (day 50) mice, monitoring pigmentation, hair growth and hair cycle
Description: Animals were acquired from Jackson Labs (K15-CrePR, Lgr5-CreER and Lgr6-CreER), Rutter Lab (Mpc^fl/fl) and Seth Lab (Ldha^fl/fl) (Xie, H. et al., Cell Metab., 19, 795-809 (2014)) and maintained under conditions set forth by IUCUC and ARC. For experiments that include analysis of the telogen stage of the hair cycle, animals were harvested at post-natal day 50, for telogen-anagen transition animals were harvested at day 70, and for anagen animals were harvested at post-natal day 90. For experiments that include analysis of transgenic animals, K15-CrePR animals were shaved and treated by intraperitoneal injections of mifepristone and Lgr5-CreER and Lgr6-CreER animals were shaved and treated with tamoxifen (10 mg/ml dissolved in sunflower seed oil, 2 mg per day for 3 days) during telogen (post-natal day 50), and monitored for hair regrowth following shaving. Phenotypes shown from treated animals were produced 3-4 weeks after mifepristone administration. For FIG. 3, wildtype C57BL/6J animals were shaved at post-natal day 50 and treated topically with Transderma PLO Gel ([…] lecithin organogel), PLO Gel Ultramax Base (TR220) (vehicle), or the compound of formula (I) (Compound (I)) (20 μM) (Sigma Aldrich product PZ0160) for indicated periods of time. Both male and female animals were used in this study in approximately equal numbers with no apparent difference in phenotype between genders. All phenotypes described are representative of a minimum of n=3 littermate pairs as indicated in the description of each experiment. No statistical measure was used to determine the sample size beforehand, nor were statistics used to measure effects, as the results were essentially positive or negative as represented in the figures. The results described include data from all treated animals. The investigators were not blinded to allocation during the experimental data collection, nor were the experiments randomized. The results shown were representative images from at least three independently treated animals, and genotyping was performed both before and after animal treatment for confirmation.
Tissues were isolated from the indicated genotypes and embedded fresh in optimal cutting temperature (OCT) compound for frozen tissue preparations, or fixed overnight in 4% formalin and embedded in paraffin. For frozen tissue, sectioning was performed on a Leica 3200 Cryostat, and fixed for 5 minutes in 4% paraformaldehyde. Paraffin embedded tissue was sectioned, de-paraffinized, and prepared for histology. All sections prepared for staining were blocked in staining buffer containing appropriate control IgG (Goat, Rabbit etc.). Immunohistochemistry was performed on formalin-fixed paraffin-embedded tissue with citrate or Tris buffer antigen retrieval with the following antibodies: Ki67 (Abcam ab16667, 1:50), p-S6 (Cell Signaling CST2215, 1:50), Sox9 (Abcam ab185230, 1:1000), Ldha (Abcam ab47010, 1:100), Ldh (Abcam ab125683, 1:100), p-Stat3 (Abcam ab68153, 1:200), p-Stat1 (Abcam ab109461, 1:200), p-Stat5 (Abcam ab32364; 1:50), Gli3 (Abcam ab6050; 1:100), β-catenin (Abcam ab32572; 1:500). The DAKO EnVision+ HRP Peroxidase System (Dako K400911-2) and Dako AEC Substrate Chromogen (Dako K346430-2) was used for detection. Images were collected on an Olympus BX43 Upright Microscope and Zeiss Model Axio Imager M1 Upright Fluorescence Microscope. Protein samples for western blots and enzymatic assays were extracted from FACS sorted epidermal populations in RIPA lysis buffer (Pierce) with Halt protease and phosphatase inhibitors (Thermo-Fisher) and precipitated in acetone for concentration. The following antibodies were used: β-actin (Abcam ab8227; 1:1000), β-actin (Santa Cruz sc-47778; 1:1000), C-Myc (Abcam ab32072; 1:1000), N-Myc (Santa Cruz sc-53993; 1:200), H3K27Ac (Abcam ab177178; 1:200), Mpc1 (Sigma HPA045119).
Both male and female animals were used in this study in approximately equal numbers with no apparent difference in phenotype between genders. […]

Ldh = experiment: In situ Ldh enzyme activity assay in epidermis of topically treated animals; settings: in situ stain
Description: (§1) Animals were acquired from Jackson Labs (K15-CrePR, Lgr5-CreER and Lgr6-CreER), Rutter Lab (Mpc^fl/fl) and Seth Lab (Ldha^fl/fl) (Xie, H. et al., Cell Metab., 19, 795-809 (2014)) and maintained under conditions set forth by IUCUC and ARC. For experiments that include analysis of the telogen stage of the hair cycle, animals were harvested at post-natal day 50, for telogen-anagen transition animals were harvested at day 70, and for anagen animals were harvested at post-natal day 90. For experiments that include analysis of transgenic animals, K15-CrePR animals were shaved and treated by intraperitoneal injections of mifepristone and Lgr5-CreER and Lgr6-CreER animals were shaved and treated with tamoxifen (10 mg/ml dissolved in sunflower seed oil, 2 mg per day for 3 days) during telogen (post-natal day 50), and monitored for hair regrowth following shaving. Phenotypes shown from treated animals were produced 3-4 weeks after mifepristone administration. For FIG. 3, wildtype C57BL/6J animals were shaved at post-natal day 50 and treated topically with Transderma PLO Gel (premium lecithin organogel), PLO Gel Ultramax Base (TR220) (vehicle), or the compound of formula (I) (Compound (I)) (20 μM) (Sigma Aldrich product PZ0160) for indicated periods of time. […]

HFSCs = experiment: Metabolomic analysis (LC-MS) of lactate in HFSCs sorted from topically treated skin
Description: as §1, with “administration.” for “administration. For FIG. 3, wildtype C57BL/6J animals were shaved at post-natal day 50 and treated topically with Transderma PLO Gel (premium lecithin organogel), PLO Gel Ultramax Base (TR220) (vehicle), or the compound of formula (I) (Compound (I)) (20 μM) (Sigma Aldrich product PZ0160) for indicated periods of time.”
Whole dorsal and ventral mouse skin were excised and floated on trypsin (0.25%) for 1 h at 37° C. or overnight at 4° C. […] The cells were then filtered through a […] cell strainer and stained for fluorescence-activated cell sorting (FACS) processing with CD34 Monoclonal Antibody (RAM34), FITC, eBioscience™ (Catalog #:11-0341-82) and CD49d (Integrin alpha 4) Monoclonal Antibody (R1-2), PE, eBioscience™ (Catalog #: 12-0492-81). […]

17 month old mice = experiment: Treatment of elderly (17 month old) shaved mice, hair coat re-growth; settings: 20 uM in PLO gel every other day, up to 30 days after shaving; DMSO control patchy
Description: 17 month old mice were shaved and treated every other day with DMSO or 20 uM of the compound of formula (I) diluted in PLO gel (pluronic lecithin organogel). Images were acquired at the indicated day after shaving and carried out for 30 days.

[2] = topical treatment of animals in telogen (day 50)

N#CC(=Cc1cn(-c2ccccc2)c2ccccc12)C(=O)O [compound of formula (I)]
effect on proliferation of the interfollicular epidermis [1, 2]: minor hyperproliferation of the interfollicular epidermis
effect on the hair cycle [1, 2]: robust acceleration of the hair cycle
time of treatment to full anagen, indicated by full coat of hair ([1]; topical, 20 μM): 14 days
skin pathology: anagen entry (down growth of the follicle and hypodermal thickening) ([1]; topical, 20 μM, vehicle animals remained in telogen): entered an accelerated anagen at 8 weeks
time of treatment to pigmentation and hair growth, indicative of entry into anagen ([1]; topical, 20 μM, vehicle control showed none even after 12 days): 8 days
time to beginning of hair cycle acceleration (time to observed phenotype) ([1]; topical, at least 6 pairs of animals, vehicle vs compound): 3 to 5 days
Ldh enzyme activity in interfollicular epidermis (Ldh; topical application for 48 hours during telogen): increased Ldh activity in the interfollicular epidermis; also recorded: also seen in interfollicular epidermis
Ldh enzyme activity in HFSCs (Ldh; topically treated animals): strong activity in HFSCs
lactate levels, replicate experiment (HFSCs; 48-72 hours of treatment): increase in lactate levels
total levels of lactate in sorted HFSCs (HFSCs; topical application, 48 hours): increases total levels of lactate
hair coat re-growth in aged mice (17 month old mice): more complete re-growth; also recorded: more complete hair growth
